# According to patent US7326689B2, “Pseudomycins useful against plant diseases” (Eli Lilly and Company, priority 2000, dated 2008):
# Several values for one entry are separate records, joined by “and”; a condition that tells them apart may be missing. Equal entries are not always repeated.
# What was measured:
# Experiment in all cases: Antifungal growth assay in potato dextrose broth, 24-well
# Type in all cases: cell-based
# Ustilago maydis = conditions: 3x assays
# Procedure: (§1) Fungi to be tested were propagated on potato dextrose agar (PDA) plates at room temperature. Stock solutions of pseudomycins and depsipeptide were suspended in dimethylsulfoxide (DMSO) (Sigma) at 5 mg/ml and stored at −20C. Serial dilutions of compounds were done the day of the experiment. All serial dilutions were made in DMSO. […] These are noted in the raw data section.
# (§2) Assays were performed in 24-well cell culture clusters (Costar 3524), with 990 ul potato dextrose broth (PDB, Difco) and 10 ul of the compound to be tested in each well. Initial concentrations tested were 50-1.56 ug/ml (final concentration of pseudomycin). Actual concentrations of pseudomycins tested were 50, 25, 12.5, 6.25, 3.12 and 1.56 ug/ml. Each well was inoculated with the appropriate fungus. Unless noted, the fungal inoculum consisted of an ˜4 mm^2 piece of PDA with fungal mycelium. The exceptions were as follows. Ustilago maydis: this fungus grows much like a yeast on PDA, and cells were scraped from the PDA stock plate, resuspended in PDB and 10 ul inoculum added to each well. Monilinia sp.: this fungal mycelium grows as a very loose sheet on top of PDA and would not adhere to agar blocks. Fungal mycelium was ground with a metal rod in 500 ul PDB and 10 ul inoculum was added to each well. Mycosphaeella fijiensis, Septoria passerinii, Septoria triticii: these fungi all grow very slowly and the results were difficult to score if a small piece of agar with fungal mycelium on it was used as an inoculum. For these fungi, the mycelium was ground with a metal rod in 500 ul PDB and 10 ul inoculum was added to each well.
# (§3) Wells were scored for fungal growth at two days and five days. Some slow growing fungi were scored at later days for growth because assessment was not possible at two or five days. Growth was scored by comparison to a control consisting of fungus inoculated into 990 ul potato dextrose broth and 10 ul of DMSO (Dimethylsulfoxide). An additional control consisting of fungal inoculum in PDB only was performed to ensure that the DMSO was not inhibitory to fungal growth.
# (§4) For assays that were repeated, new stock solutions were made from a second shipment of pseudomycins. Note that pseudomycin B′ and depsipeptide stock solutions were remade from first shipment materials because these were not included in the second shipment. […] Actual concentrations of pseudomycins tested were 2, 1, 0.5, 0.25, 0.125 and 0.0625 ug/ml. A-PO4 and A-FB=pseudomycin A phosphate salt and free base respectively.
# (§5) Table 2: Two day results—concentration indicated is lowest level of compound (ug /ml) that results is no growth. NI, no inhibition; p (partial), at least 50% inhibited; -, not determined. If number of assays was greater than one, number of assays performed on the fungus is noted in parentheses. For several slow-growing fungi, days elapsed before observation (if different than two) are noted.
# (§6) Table 3: Five day results—concentration indicated is lowest level of compound (ug /ml) that results in no growth. NI, no inhibition; p (partial), at least 50% inhibited; -, not performed on the fungus is noted in parentheses. For several slow-growing fungi, days elapsed before observation (if different than five) are noted.
# Monilinia sp. = conditions: 2x assays
# Procedure: as §1, §2, §3, §4, §5, §6
# [1] = tested on: Mycosphaeella fijiensis (8088/88); conditions: 3x assays
# Procedure: as §1, §2, §3, §4, §5, §6
# Penicillium roqueforti = conditions: 3x assays
# Procedure: as §1, §2, §3, §4, §5, §6
# Septoria passerinii = conditions: 3x assays
# Procedure: as §1, §2, §3, §4, §5, §6
# Geotrichim candidum = conditions: 3x assays
# Procedure: as §1, §2, §3, §4, §5, §6
# Drechslera portulacae = conditions: 3x assays
# Procedure: as §1, §2, §3, §4, §5, §6
# Septoria tritici = conditions: 3x assays
# Procedure: as §1, §2, §3, §4, §5, §6
# Rhizoctonia solani = conditions: 2x assays
# Procedure: as §1, §2, §3, §4, §5, §6
# [2] = tested on: Mycosphaeella fijiensis (Sigatoka); conditions: 3x assays
# Procedure: as §1, §2, §3, §4, §5, §6
# [3] = tested on: Pestalotiopsis microspora NE-32; design: key: NI, no inhibition; p (partial), at least 50% inhibited
# Procedure: as §1, §2, §3, §4, §5, §6
# Phytophthora ultimum = tested on: Phytophthora ultimum; design: key: NI, no inhibition; p (partial), at least 50% inhibited
# Procedure: as §1, §2, §3, §4, §5, §6
# Fusarium solani = tested on: Fusarium solani; design: key: NI, no inhibition; p (partial), at least 50% inhibited
# Procedure: as §1, §2, §3, §4, §5, §6
# Tapesia acuformis = tested on: Tapesia acuformis; design: key: NI, no inhibition; p (partial), at least 50% inhibited; conditions: 2x assays
# Procedure: as §1, §2, §3, §4, §5, §6
# Fusarium avenaceum = tested on: Fusarium avenaceum; design: key: NI, no inhibition; p (partial), at least 50% inhibited
# Procedure: as §1, §2, §3, §4, §5, §6
# Stagonospora nodorum = tested on: Stagonospora nodorum; design: key: NI, no inhibition; p (partial), at least 50% inhibited
# Procedure: as §1, §2, §3, §4, §5, §6
# Phytophthora cactorum = tested on: Phytophthora cactorum; design: key: NI, no inhibition; p (partial), at least 50% inhibited
# Procedure: as §1, §2, §3, §4, §5, §6
# Diplodia natalensis = tested on: Diplodia natalensis; design: key: NI, no inhibition; p (partial), at least 50% inhibited
# Procedure: as §1, §2, §3, §4, §5, §6
# Sclerotinia sclerotiorum = tested on: Sclerotinia sclerotiorum; design: key: NI, no inhibition; p (partial), at least 50% inhibited; conditions: 2x assays
# Procedure: as §1, §2, §3, §4, §5, §6
# [4] = tested on: Drechslera tritici-repentis; design: key: NI, no inhibition; p (partial), at least 50% inhibited
# Procedure: as §1, §2, §3, §4, §5, §6
# Botrytis alli = tested on: Botrytis alli; design: key: NI, no inhibition; p (partial), at least 50% inhibited; conditions: 2x assays
# Procedure: as §1, §2, §3, §4, §5, §6
# [5] = Table 2 (two day results), observed at 7 day
# [6] = Table 3 (five day results), observed at 21 days
# [7] = Table 3 (five day results), observed at 9 day
substance,measurement,setting,value
Pseudomycin C′,lowest level of compound that results in no growth,Ustilago maydis; five day results,0.25 µg/mL
same,lowest level of compound that results in no growth,Ustilago maydis; two day results,0.25 µg/mL
same,lowest level of compound that results in no growth,Monilinia sp.; five day results,6.25 µg/mL
same,lowest level of compound that results in no growth,Monilinia sp.; two day results,3.12 µg/mL
same,lowest level of compound that results in no growth,[1]; [5],0.125 µg/mL
same,lowest level of compound that results in no growth,[1]; [6],0.25 µg/mL
same,lowest level of compound that results in no growth,Penicillium roqueforti; five day results,p at 50
same,lowest level of compound that results in no growth,Penicillium roqueforti; two day results,1.56 µg/mL
same,lowest level of compound that results in no growth,Septoria passerinii; five day results,0.0625 µg/mL and 0.06 µg/mL
same,lowest level of compound that results in no growth,Septoria passerinii; two day results,0.06 µg/mL
same,lowest level of compound that results in no growth,Geotrichim candidum; five day results,6.25 µg/mL
same,lowest level of compound that results in no growth,Geotrichim candidum; two day results,1.56 µg/mL
same,lowest level of compound that results in no growth,Drechslera portulacae; [7],0.5 µg/mL
same,lowest level of compound that results in no growth,Drechslera portulacae; two day results,0.05 µg/mL
same,lowest level of compound that results in no growth,Septoria tritici; five day results,0.25 µg/mL
same,lowest level of compound that results in no growth,Septoria tritici; two day results,0.125 µg/mL
same,lowest level of compound that results in no growth,Rhizoctonia solani; five day results,p at 50
same,lowest level of compound that results in no growth,Rhizoctonia solani; two day results,p at 50
same,lowest level of compound that results in no growth,[2]; [5],1.56 µg/mL
same,lowest level of compound that results in no growth,[2]; [6],1.56 µg/mL
same,lowest level of compound that results in no growth,[3]; five day results,NI
same,lowest level of compound that results in no growth,[3]; two day results,NI
same,lowest level of compound that results in no growth,Phytophthora ultimum; five day results,NI
same,lowest level of compound that results in no growth,Phytophthora ultimum; two day results,NI
same,lowest level of compound that results in no growth,Fusarium solani; five day results,NI
same,lowest level of compound that results in no growth,Fusarium solani; two day results,NI
same,lowest level of compound that results in no growth,Tapesia acuformis; five day results,NI
same,lowest level of compound that results in no growth,Tapesia acuformis; two day results,NI
same,lowest level of compound that results in no growth,Fusarium avenaceum; five day results,NI
same,lowest level of compound that results in no growth,Fusarium avenaceum; two day results,NI
same,lowest level of compound that results in no growth,Stagonospora nodorum; five day results,NI
same,lowest level of compound that results in no growth,Stagonospora nodorum; two day results,NI
same,lowest level of compound that results in no growth,Phytophthora cactorum; five day results,NI
same,lowest level of compound that results in no growth,Phytophthora cactorum; two day results,NI
same,lowest level of compound that results in no growth,Diplodia natalensis; five day results,NI
same,lowest level of compound that results in no growth,Diplodia natalensis; two day results,NI
same,lowest level of compound that results in no growth,Sclerotinia sclerotiorum; five day results,p at 50
same,lowest level of compound that results in no growth,Sclerotinia sclerotiorum; two day results,50 µg/mL
same,lowest level of compound that results in no growth,[4]; five day results,NI
same,lowest level of compound that results in no growth,"[4]; two day results, 2x assays",50 µg/mL
same,lowest level of compound that results in no growth,Botrytis alli; five day results,NI
same,lowest level of compound that results in no growth,Botrytis alli; two day results,NI
Pseudomycin C,lowest level of compound that results in no growth,Ustilago maydis; five day results,0.25 µg/mL
same,lowest level of compound that results in no growth,Ustilago maydis; two day results,0.25 µg/mL
same,lowest level of compound that results in no growth,Monilinia sp.; five day results,12.5 µg/mL
same,lowest level of compound that results in no growth,Monilinia sp.; two day results,6.25 µg/mL
same,lowest level of compound that results in no growth,[1]; [5],0.125 µg/mL
same,lowest level of compound that results in no growth,[1]; [6],0.25 µg/mL
same,lowest level of compound that results in no growth,Penicillium roqueforti; five day results,12.5 µg/mL
same,lowest level of compound that results in no growth,Penicillium roqueforti; two day results,1.56 µg/mL
same,lowest level of compound that results in no growth,Septoria passerinii; five day results,0.0625 µg/mL and 0.06 µg/mL
same,lowest level of compound that results in no growth,Septoria passerinii; two day results,0.06 µg/mL
same,lowest level of compound that results in no growth,Geotrichim candidum; five day results,25 µg/mL
same,lowest level of compound that results in no growth,Geotrichim candidum; two day results,3.12 µg/mL
same,lowest level of compound that results in no growth,Drechslera portulacae; [7],0.0625 µg/mL and 0.06 µg/mL
same,lowest level of compound that results in no growth,Drechslera portulacae; two day results,0.06 µg/mL
same,lowest level of compound that results in no growth,Septoria tritici; five day results,0.25 µg/mL
same,lowest level of compound that results in no growth,Septoria tritici; two day results,0.125 µg/mL
same,lowest level of compound that results in no growth,Rhizoctonia solani; five day results,p at 50
same,lowest level of compound that results in no growth,Rhizoctonia solani; two day results,25 µg/mL
same,lowest level of compound that results in no growth,[2]; [5],1.56 µg/mL
same,lowest level of compound that results in no growth,[2]; [6],1.56 µg/mL
same,lowest level of compound that results in no growth,[3]; five day results,NI
same,lowest level of compound that results in no growth,[3]; two day results,NI
same,lowest level of compound that results in no growth,Phytophthora ultimum; five day results,NI
same,lowest level of compound that results in no growth,Phytophthora ultimum; two day results,NI
same,lowest level of compound that results in no growth,Fusarium solani; five day results,NI
same,lowest level of compound that results in no growth,Fusarium solani; two day results,p at 50
same,lowest level of compound that results in no growth,Tapesia acuformis; five day results,NI
same,lowest level of compound that results in no growth,Tapesia acuformis; two day results,NI
same,lowest level of compound that results in no growth,Fusarium avenaceum; five day results,NI
same,lowest level of compound that results in no growth,Fusarium avenaceum; two day results,NI
same,lowest level of compound that results in no growth,Stagonospora nodorum; five day results,NI
same,lowest level of compound that results in no growth,Stagonospora nodorum; two day results,NI
same,lowest level of compound that results in no growth,Phytophthora cactorum; five day results,NI
same,lowest level of compound that results in no growth,Phytophthora cactorum; two day results,NI
same,lowest level of compound that results in no growth,Diplodia natalensis; five day results,NI
same,lowest level of compound that results in no growth,Diplodia natalensis; two day results,NI
same,lowest level of compound that results in no growth,Sclerotinia sclerotiorum; five day results,NI
same,lowest level of compound that results in no growth,Sclerotinia sclerotiorum; two day results,NI
same,lowest level of compound that results in no growth,[4]; five day results,NI
same,lowest level of compound that results in no growth,"[4]; two day results, 2x assays",50 µg/mL
same,lowest level of compound that results in no growth,Botrytis alli; five day results,NI
same,lowest level of compound that results in no growth,Botrytis alli; two day results,NI
